Measurements reported in patent publication US20250295607A1, “OPHTHALMIC COMPOSITIONS FOR TREATMENT OF OCULAR SURFACE DAMAGE AND SYMPTOMS OF DRYNESS” (Novaliq GmbH, priority 2018, published 2025).

Key:
[1] = test system: subjects with Dry Eye Disease; assay: Ocular Surface Disease Index (OSDI) questionnaire; format: in vivo, human
Excerpt: The Ocular Surface Disease Index (OSDI©)) is perhaps the most frequently used survey instrument for the assessment of ocular surface disease severity in dry eye research. The OSDIC was created by the Outcomes Research Group at Allergan Inc in order to quickly assess the symptoms of ocular irritation in dry eye disease and how they affect functioning related to vision. This 12-item questionnaire assesses dry eye symptoms and the effects it has on vision-related function in the past week of the patient's life. The questionnaire has 3 subscales: ocular symptoms, vision-related function, and environmental triggers. Patients rate their responses on a 0 to 4 scale with 0 corresponding to “none of the time” and 4 corresponding to “all of the time.” A final score is calculated which ranges from 0 to 100.
The questions assess the following: dry eye symptoms experienced by the patient within past week: sensitivity to light, gritty sensation, pain or sore eyes, blurriness, and poor vision; vision-related function, in terms of problems in the past week with regards to: reading, driving at night, working on a computer or bank machine, watching television; and in terms of environmental factors or triggers i.e. discomfort experienced in the past week during: windy conditions, places with low humidity, and areas with air condition.
Subtotals are obtained for all the questions, as well as the total number of questions answered. The OSDI index is assessed based on a scale of 0 to 100, with higher scores representing a greater disability. The OSDI index is calculated from the sum of the scores multiplied by a factor of 25, over the total number of questions answered. Higher scores represent a greater degree/severity and impact of dry eye disease.

[2] = test system: subjects with Dry Eye Disease; assay: Visual Analog Scale (VAS) Eye Dryness Score questionnaire; format: in vivo, human; settings: QID
Protocol: An Eye Dryness Score was determined based on a 10-item questionnaire provided to subjects, where subjects were asked to rate their ocular symptoms (both eyes simultaneously) due to ocular dryness by placing a vertical mark on a horizontal line scale to indicate the level of discomfort (0% corresponds to “no dryness” and 100% corresponds to “maximal dryness”). Subjects are asked about the severity of dry eye symptoms, namely the symptoms of dryness representing the first 8 questions of the VAS questionnaire corresponding to: dryness (corresponding to the first question in the VAS questionnaire, and also referred to in the text and in the graphs as “severity of dryness”; with the terms “dryness” and “severity of dryness” being used interchangeably herein as a dry eye symptom designation, sticky feeling, burning/stinging, foreign body sensation, itching, blurred vision, sensitivity to light, and pain.
Subjects are also asked about their awareness of their dry eye symptoms and frequency of their dry eye symptoms, namely questions 9-10 of the VAS questionnaire. The rating for these questions is indicated by the subject by placing a vertical mark on a horizontal line scale to indicate the percentage of time of awareness or frequency, with 0% corresponding to ‘never’ and 100% corresponding to ‘all of the time’.

[3] = test system: cornea of subjects with Dry Eye Disease; assay: Corneal fluorescein staining, NEI grading scale (ocular surface damage); format: in vivo, human
Excerpt: A Wratten #12 yellow filter will be used to enhance the ability to grade fluorescein staining. The staining will be graded with the NEI (National Eye Institute) Grading
Scale. Only the staining of the cornea will be graded. Digital images of fluorescein staining may be taken for digital analysis.
Based on the NEI/Industry Workshop Scale, the grade of the ocular surface damage for each eye is scored for each of the five regions of the cornea based on measuring fluorescein uptake.
Grade 0 will be specified when no fluorescein staining is present. Grades 1, 2 and 3 define an increasing density and degree of observed fluorescein staining, The maximum total score for each eye is 15.

[4] = test system: subjects with Dry Eye Disease; assay: Phase 2 multi-center, randomized, double-masked, saline-controlled clinical study (NCT03333057), signs and symptoms overall; format: in vivo, human
Protocol: A Phase 2, Multi-Center, Randomized, Double-Masked, Saline-Controlled Study to Evaluate the Effect of 1-Perfluorohexyloctane (NOV03) at two different dosing regimens on signs and symptoms of Dry Eye Disease (DED) was conducted. The study was performed at 11 investigational cites in the United States. The study was reviewed and approved by the respective ethics committees and registered at www.clinicaltrials.gov (NCT03333057).
The primary objective for this study is to evaluate the efficacy, safety, and tolerability of an ophthalmic composition essentially consisting of 1-perfluorohexyloctane (NOV03) at two different dosing regimens (QID, BID) compared to saline solution in subjects with Dry Eye Disease. The secondary objectives are to compare the effect of an ophthalmic composition essentially consisting of 1-perfluorohexyloctane (NOV03) and saline solution at two different dosing regimens on signs and symptoms of Dry Eye Disease and to evaluate the pharmacokinetics after 57 days dosing.
Subjects must: • a. Be at least 18 years of age. • b. Provide written informed consent. • c. Have a subject reported history of Dry Eye Disease in both eyes for at least 6 months prior to Visit 0. • d. […] Have Meibomian Gland Dysfunction (MGD) defined as MGD score≥3 (secretion of 5 central glands on lower eyelid will be evaluated, each will be scored from 0-3; 0=normal, 1=thick/yellow, whitish, particulate 2=paste; 3=none/occluded; total score will range from 0-15) at Visit 0 and Visit 1. • h. […]
Screening (Visit 0); Within 14 days before Visit 1 Subjects will be required to sign an Informed Consent before completing any study related procedure. At the screening visit, vital signs will be assessed and the subject will give blood for safety laboratory tests. […]
Baseline Visit Day 1 (Visit 1): On Day 1 (Visit 1), eligible subjects will be evaluated for baseline signs and symptoms of dry eye disease. […]
Visits 2-4; Subjects will return to the clinic on Day 15±1 (Visit 2), 29±2 (Visit 3), and 57±2 (Visit 4) to be evaluated for signs and symptoms of dry eye disease. […]

Density = format: physicochemical
[5] = QID, significant also at 4 weeks, 8 weeks
[6] = QID, after 2 weeks of treatment

CCCCCCCCC(F)(F)C(F)(F)C(F)(F)C(F)(F)C(F)(F)C(F)(F)F [NOV03, 1-perfluorohexyloctane]
OSDI blurred vision ([1]; QID vs saline): clear improvements
OSDI eyes feeling gritty ([1]; QID vs saline): clear improvements
OSDI painful or sore eyes ([1]; QID vs saline): clear improvements
OSDI poor vision ([1]; QID vs saline): clear improvements
OSDI problems with driving at night ([1]; QID vs saline): clear improvements
OSDI problems with watching TV ([1]; QID vs saline): clear improvements
OSDI reading problems ([1]; QID vs saline): clear improvements
OSDI sensitivity to light ([1]; QID vs saline): clear improvements
OSDI uncomfortable in areas that are air conditions ([1]; QID vs saline): clear improvements
OSDI uncomfortable in areas with low humidity ([1]; QID vs saline): clear improvements
OSDI uncomfortable under windy conditions ([1]; QID vs saline): clear improvements
OSDI problems with working with a computer or bank machine (ATM) ([1]; QID, at the 4 and 8-week timepoint, higher data variability): did not improve
total OSDI score ([1]; QID, over the placebo group): highly statistical significant improvement
start of treatment effect relating to the OSDI symptoms [1, 5]: 2 weeks
VAS pain ([2]; at the 4 week timepoint, higher variability): did not improve
VAS awareness of dryness ([2]; over the placebo group): highly statistical significant improvement
VAS blurred vision ([2]; over the placebo group): highly statistical significant improvement
VAS burning/stinging ([2]; over the placebo group): highly statistical significant improvement
VAS foreign body sensation ([2]; over the placebo group): highly statistical significant improvement
VAS frequency of dryness ([2]; over the placebo group): highly statistical significant improvement
VAS itching ([2]; over the placebo group): highly statistical significant improvement
VAS sensitivity to light ([2]; over the placebo group): highly statistical significant improvement
VAS severity of dryness ([2]; over the placebo group): highly statistical significant improvement
VAS sticky feeling ([2]; over the placebo group): highly statistical significant improvement
VAS severity of dryness in patients with Schirmer I Test of greater or equal than 10 mm ([2]; subpopulation with normal tear production, DED associated with MGD, 8 weeks): significant change from baseline
start of treatment effect relating to the VAS symptoms ([2]; significant also at 4 weeks, 8 weeks): 2 weeks
reduction of ocular surface damage, superior corneal region ([3]; QID vs saline): did not show such clear improvement
reduction of ocular surface damage, central corneal region ([3]; QID vs saline, 2, 4, 8 weeks): clear improvements
reduction of ocular surface damage, inferior corneal region ([3]; QID vs saline, 2, 4, 8 weeks): clear improvements
reduction of ocular surface damage, nasal corneal region ([3]; QID vs saline, 2, 4, 8 weeks): clear improvements
reduction of ocular surface damage, temporal corneal region ([3]; QID vs saline, 2, 4, 8 weeks): clear improvements
patients with improvement of ≥1 grade in central corneal staining [3, 6]: 39%
patients with improvement of ≥3 grades in total corneal staining [3, 6]: 32%
patients with improvement of ≥1 grade in central corneal staining ([3]; QID, after 8 weeks): 50%
patients with improvement of ≥3 grades in total corneal staining ([3]; QID, after 8 weeks): 42%
total corneal fluorescein staining (primary efficacy endpoint), reduction of ocular surface damage of the total corneal region ([3]; QID, at 8 weeks, vs saline): met its prespecified primary efficacy endpoint
start of treatment effect relating to the signs [3, 5]: 2 weeks
signs and symptoms of dry eye disease ([4]; 4 times daily, single drop of 10-12 μl, highly symptomatic DED population with significant MGD involvement): relevant and statistically significant improvements
benefit in patient population by baseline characteristics ([4]; QID, OSDI between 38 and 72, TBUT between 2.1 and 3.9 seconds or MGD score between 4.0 and 11.2, and/or total corneal fluorescein staining between 4.8 and 9.2): beneficial
benefit in patients meeting one or more baseline criteria ([4]; QID, TBUT equal or lower than 3, OSDI higher than 57, total corneal fluorescein staining between 5 and 9, MGD score equal or higher than 7, Schirmer I Test greater or equal than 10 mm): especially benefitted
density (Density): 1.35 g/mL
density (d) (Density): 1.35 g/mL
